Assay results reported in patent publication US8431715B2, “Thiazole compound (as PPARδ) ligand and pharmaceutical, cosmetic and health food comprised thereof” (Seoul National University Industry Foundation, priority 2007, dated 2013).
Where two headings read alike, the source gives them in different places.

How the values were obtained:
PPARα = biological target: T1, PPARα (Homo sapiens, UniProt Q07869); assay: Transfection assay (luciferase reporter) in CV-1 cells, PPARα; assay type: cell-based; conditions: 24 hours treatment
T1 construct: Full length PPARs plasmid DNA, reporter DNA confirming PPARs activity owing to its luciferase activity; expressed in transfected cells; host or cells: CV-1 cells
T1 sequence (Q07869 1-468): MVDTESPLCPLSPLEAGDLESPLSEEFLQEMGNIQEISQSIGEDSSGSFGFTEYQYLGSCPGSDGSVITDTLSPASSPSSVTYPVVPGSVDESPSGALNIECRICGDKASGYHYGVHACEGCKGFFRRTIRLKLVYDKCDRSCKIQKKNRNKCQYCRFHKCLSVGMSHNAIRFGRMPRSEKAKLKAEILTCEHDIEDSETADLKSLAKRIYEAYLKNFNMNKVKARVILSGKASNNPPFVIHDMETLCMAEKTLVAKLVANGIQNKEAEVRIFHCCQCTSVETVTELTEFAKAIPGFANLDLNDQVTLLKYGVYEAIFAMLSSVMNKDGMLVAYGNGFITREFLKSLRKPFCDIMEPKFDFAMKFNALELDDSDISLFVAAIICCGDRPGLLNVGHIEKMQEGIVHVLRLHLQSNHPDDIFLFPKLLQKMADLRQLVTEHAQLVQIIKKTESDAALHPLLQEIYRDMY
Procedure: (§1) The PPARδ activities of the R-form compound represented by formula 1 of the present invention and the S-form compound represented by formula 2 were measured by transfection assay. In addition, the selectivity to PPAR subtypes, PPARα and PPARγ, was examined. Cytotoxicity was tested by MTT assay and in vivo activity and toxicity was investigated by animal experiment using mice.
(§2) CV-1 cells were used in this assay. The cells were inoculated in a 96-well plate containing DMEM supplemented with 10% FBS, DBS (delipidated) and 1% penicillin/streptomycin and cultured in a 37 °C, 5% CO2 incubator. The experiment was performed according to the steps of inoculation, transfection, sample treatment and confirmation. Particularly, CV-1 cells were inoculated in a 96 well-plate (5000 cells/well), followed by transfection 24 hours later. Full length PPARs plasmid DNA, reporter DNA confirming PPARs activity owing to its luciferase activity, β-galactosidase DNA providing information on transfection efficiency, and transfection reagent were used for the transfection. The compounds of formula 1 and formula 2 were dissolved in dimethylsulfoxide (DMSO), which were treated to the cells via media at different concentrations. […] Luciferase activity and β-galactosidaseactivity were measured with Luminometer and a microplate reader. […] A graph was made with those values and EC50 was calculated.

PPARγ = biological target: T2, PPARγ (Homo sapiens, UniProt P37231); assay: Transfection assay (luciferase reporter) in CV-1 cells, PPARγ; assay type: cell-based; conditions: 24 hours treatment
T2 construct: Full length PPARs plasmid DNA, reporter DNA confirming PPARs activity owing to its luciferase activity; expressed in transfected cells; host or cells: CV-1 cells
T2 sequence (P37231 1-505): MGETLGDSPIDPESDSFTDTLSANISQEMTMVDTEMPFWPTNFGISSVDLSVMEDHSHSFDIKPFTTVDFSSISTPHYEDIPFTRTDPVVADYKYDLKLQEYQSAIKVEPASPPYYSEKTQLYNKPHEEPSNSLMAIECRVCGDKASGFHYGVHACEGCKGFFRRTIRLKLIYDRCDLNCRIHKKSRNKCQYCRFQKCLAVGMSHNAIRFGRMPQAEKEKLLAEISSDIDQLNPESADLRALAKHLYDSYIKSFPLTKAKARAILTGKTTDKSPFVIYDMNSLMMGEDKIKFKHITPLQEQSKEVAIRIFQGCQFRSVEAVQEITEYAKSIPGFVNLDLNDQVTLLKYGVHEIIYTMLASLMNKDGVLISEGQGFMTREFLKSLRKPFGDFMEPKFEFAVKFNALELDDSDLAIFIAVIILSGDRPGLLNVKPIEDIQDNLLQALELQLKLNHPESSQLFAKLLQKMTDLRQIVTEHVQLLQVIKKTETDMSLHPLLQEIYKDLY
Procedure: as §1, §2

CV-1 cells = assay: MTT assay, cytotoxicity; assay type: cell-based; conditions: 24 hours, even at the concentration of 100,000 times the EC50 value
Procedure: MTT assay was performed to test cytotoxicity of the compounds of the present invention. MTT is a yellow substance soluble in water, but when it is introduced into a living cell, it turns into a purple insoluble crystal by dehydrogenase in mitochondria. Cytotoxicity can be confirmed by measuring OD550 after dissolving MTT in dimethylsulfoxide. The experiment was performed as follows.
CV-1 cells were inoculated in a 96-well plate (5000 cells/well). The cells were cultured in a 37[…] 5% CO2 incubator for 24 hours, and treated with the compounds of formula 1 and formula 2 at different concentrations. Then, the cells were cultured for 24 hours again, to which MTT reagent was added. After culturing for 15 minutes, the generated purple crystals were dissolved in dimethylsulfoxide. Optical density was measured with a microplate reader to confirm cytotoxicity.

PPARδ [1] = biological target: T3, PPARδ (Homo sapiens, UniProt Q03181); assay: Transfection assay (luciferase reporter) in CV-1 cells, PPARδ; assay type: cell-based; set-up: Full length PPARs plasmid DNA, reporter DNA confirming PPARs activity owing to its luciferase activity; expressed in transfected cells; host or cells: CV-1 cells; conditions: CV-1 cells, 24 hours treatment
T3 sequence (Q03181 1-441): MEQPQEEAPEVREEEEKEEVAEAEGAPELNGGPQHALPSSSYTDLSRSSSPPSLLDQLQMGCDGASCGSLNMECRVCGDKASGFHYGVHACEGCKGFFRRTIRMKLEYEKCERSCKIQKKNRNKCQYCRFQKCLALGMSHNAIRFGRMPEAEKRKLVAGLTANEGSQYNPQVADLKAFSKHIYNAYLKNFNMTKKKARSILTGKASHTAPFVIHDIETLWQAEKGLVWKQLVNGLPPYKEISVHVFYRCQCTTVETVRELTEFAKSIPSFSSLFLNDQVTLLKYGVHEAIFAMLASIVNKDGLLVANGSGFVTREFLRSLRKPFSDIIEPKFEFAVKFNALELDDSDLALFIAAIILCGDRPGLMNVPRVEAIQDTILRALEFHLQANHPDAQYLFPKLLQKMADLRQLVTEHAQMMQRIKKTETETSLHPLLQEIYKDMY
Procedure: as §1
CV-1 cells were used in this assay. The cells were inoculated in a 96-well plate containing DMEM supplemented with 10% FBS, DBS (delipidated) and 1% penicillin/streptomycin and cultured in a 37 °C, 5% CO2 incubator. The experiment was performed according to the steps of inoculation, transfection, sample treatment and confirmation. Particularly, CV-1 cells were inoculated in a 96 well-plate (5000 cells/well), followed by transfection 24 hours later. Full length PPARs plasmid DNA, reporter DNA confirming PPARs activity owing to its luciferase activity, β-galactosidase DNA providing information on transfection efficiency, and transfection reagent were used for the transfection. The compounds of formula 1 and formula 2 were dissolved in dimethylsulfoxide (DMSO), which were treated to the cells via media at different concentrations. After culturing the cells in the incubator for 24 hours, the cells were lysed by using lysis buffer. Luciferase activity and β-galactosidaseactivity were measured with Luminometer and a microplate reader. The obtained values of luciferase were modified by the values of β-galactosidase. A graph was made with those values and EC50 was calculated.

C57BL/6 mice [2] = assay: Obesity inhibitory effect, high-fat feed; assay type: in vivo; conditions: 10 mg/Kg/day oral, 35% fat feed for 35 days; vehicle 58.9%
Procedure: An animal test using mice was performed to confirm the in vivo effect of the compound of the present invention. C57BL/6 (SLC Co.) mice at 14 weeks were used. To induce obesity, feeds containing 35% fat were given.

mice = assay: GTT (glucose tolerance test), diabetes improving effect; assay type: in vivo; conditions: glucose 1.5 g/Kg intra-abdominal, oral pre-treatment 78 days
Procedure: GTT (glucose tolerance test) was performed to confirm the diabetes improving effect of the compound of the present invention. Glucose (1.5 g/Kg) was intra-abdominally administered to the mice pre-treated orally with samples for 78 days. Blood glucose was measured every hour. Fasting blood glucose was lower in the group treated with the compound of the present invention than in the group treated with vehicle or GW501516.

C57BL/6 mice [3] = assay: Hyperlipidemia improving effect, blood HDL level; assay type: in vivo; conditions: 10 mg/kg/day oral, high fat feeds, 6 weeks, serum
Procedure: In vivo animal test using C57BL/6 (SLC Co.) mice at 6 weeks was performed to confirm the hyperlipidemia improving effect of the compound of the present invention. […] 6 weeks later, blood was taken from orbital veins. Serum was separated and blood HDL level was measured by biochemical method.

PPARδ [4] = biological target: T3, PPARδ; conditions: literature; cited from earlier work

Cc1cc(S[C@@H](Cc2ccccc2)c2sc(-c3ccc(C(F)(F)F)cc3)nc2C)ccc1OCC(=O)O [formula 2]
EC50 PPARα (PPARα): ia
EC50 PPARγ (PPARγ): ia
cytotoxicity (CV-1 cells): not to have cytotoxicity
EC50 (PPARδ [1]): 5.1 nM

Cc1cc(SCc2sc(-c3ccc(C(F)(F)F)cc3)nc2C)ccc1OCC(=O)O [GW501516, [2-methyl-4-[[[4-methyl-2-[4-(trifluoromethyl)phenyl]-1,3-thiazol-5-yl]methyl]sulfanyl]phenoxy]acetic acid, reference compound]
weight increase (C57BL/6 mice [2]): 26.5%
blood glucose compared with vehicle (mice): lower blood glucose than the vehicle treated group
recovery of blood glucose level to normal (mice): not recovered to normal
HDL level increase compared with the control (C57BL/6 mice [3]): 36.3%

CCCc1c(OCCCOc2ccc(OCC(=O)O)cc2)ccc(C(C)=O)c1O [L-165041]
EC50 (PPARδ [4]): 530 nM
selectivity to hPPARδ over PPARα or PPARγ (PPARδ [4]): 10 times
